Laboratory results published in patent US5268386A, “Certain 3,4-dihydro 4-oxospiro [2H-1 benzopyrans] useful for treating hyperuricemia” (Shionogi & Co., Ltd., priority 1989, dated 1993).

Legend:
uric acid clearance = experiment: Accelerated uric acid clearance in rats caused by administration of compound (I); type: in vivo; settings: male rats, mean of four measurements minus control value
Description: Accelerated uric acid clearance in rats caused by administration of compound (I).
Nine-week-old male rats were employed for the test. As a pre-treatment for measuring uric acid clearance and inulin clearance, each animal was anesthetized with pentobarbital sodium, and canulae were placed into the right femoral artery (for blood collection), left femoral vein (for drug infusion), and urinary bladder (for urine collection) of each animal. 60% Urethane was subcutaneously administered to each animal at a dose of 2 ml/kg body weight and then 1.7% potassium oxonate/1.5% inulin/4% mannitol/0.9% saline solution was intravenously administered. After that, 0.5% pottasium oxonate/4% mannitol/1.5% inulin/0.9% saline was infused to each animal at a flow rate of 0.05 ml per minute on a hot plate kept at 30° C. Thirty minutes later, 0.9% saline was intraperitonealy administered at 4 ml/kg body weight. After the equilibrium for another 30 minutes, arterial blood (0.2 ml each) samples were collected 6 times at every 20 minute interval and five 20-minute urine samples were collected. Immediately after the collection of every blood sample, the serum was separated therefrom, and the serum samples and the urine samples were stored in a refrigerator.
Immediately after the first collection of the urine sample, the test compound suspended in 1% gum arabic was intraperitoneally administered at 2 ml/kg body weight.
Uric acid both in the serum and in the urine was quantitatively analyzed by the method of Yonetani et al's. [Yonetani, Y.; Ishii, M.; Iwaki, K., Japanese J. Pharmacology 30, 829-840 (1980).] Inulin was also done substantially by the method of Vurek's and Pegram's [Vurek, G G., Pegram, S.E., Anal.Biochem., 16, 409-419 (1966}]. In order to analyze uric acid, 0.2 ml of diluted solution of deproteinized serum or urine was admixed with 2.5 ml of 0.4% dimedon/orthphosphoric acid solution and the resulting mixture was heated in a hot bath for 5 minutes. The mixture was then cooled in ice-cold water and the fluorescence was measured at 400 nm in the excitation wave length at 360 nm. Control experiments were carried out using an equivalent amount of positive control compounds, ([5-chloro-3-(2-methylphenyl)-4-oxo-4H-1-benzopyran-7-yl] oxy)acetic acid and benzbromarone.
a) Increment of urinary uric acid was calculated by subtracting the control value from the mean value of four measurements after the administration of test compound.
b) Increment of fractional excretion of uric acid [Uric acid clearance/inulin clearance (i.e., glomerular filtration rate)] was calculated by subtracting the control value from the mean value of four measurements after the administration of test compound.

[1] = molecular target: T1, xanthine oxidase (milk xanthine oxidase) (Bos taurus, UniProt P80457); experiment: Evaluation of xanthine oxidase inhibition activity; type: biochemical; settings: phosphate buffer pH=8, absorbance at 293 nm, 10 minutes, read-out: IC50 (50% inhibition rate)
T1 construct: purchased Boelinger Manheim; host or cells: milk
T1 sequence (P80457 whole entry): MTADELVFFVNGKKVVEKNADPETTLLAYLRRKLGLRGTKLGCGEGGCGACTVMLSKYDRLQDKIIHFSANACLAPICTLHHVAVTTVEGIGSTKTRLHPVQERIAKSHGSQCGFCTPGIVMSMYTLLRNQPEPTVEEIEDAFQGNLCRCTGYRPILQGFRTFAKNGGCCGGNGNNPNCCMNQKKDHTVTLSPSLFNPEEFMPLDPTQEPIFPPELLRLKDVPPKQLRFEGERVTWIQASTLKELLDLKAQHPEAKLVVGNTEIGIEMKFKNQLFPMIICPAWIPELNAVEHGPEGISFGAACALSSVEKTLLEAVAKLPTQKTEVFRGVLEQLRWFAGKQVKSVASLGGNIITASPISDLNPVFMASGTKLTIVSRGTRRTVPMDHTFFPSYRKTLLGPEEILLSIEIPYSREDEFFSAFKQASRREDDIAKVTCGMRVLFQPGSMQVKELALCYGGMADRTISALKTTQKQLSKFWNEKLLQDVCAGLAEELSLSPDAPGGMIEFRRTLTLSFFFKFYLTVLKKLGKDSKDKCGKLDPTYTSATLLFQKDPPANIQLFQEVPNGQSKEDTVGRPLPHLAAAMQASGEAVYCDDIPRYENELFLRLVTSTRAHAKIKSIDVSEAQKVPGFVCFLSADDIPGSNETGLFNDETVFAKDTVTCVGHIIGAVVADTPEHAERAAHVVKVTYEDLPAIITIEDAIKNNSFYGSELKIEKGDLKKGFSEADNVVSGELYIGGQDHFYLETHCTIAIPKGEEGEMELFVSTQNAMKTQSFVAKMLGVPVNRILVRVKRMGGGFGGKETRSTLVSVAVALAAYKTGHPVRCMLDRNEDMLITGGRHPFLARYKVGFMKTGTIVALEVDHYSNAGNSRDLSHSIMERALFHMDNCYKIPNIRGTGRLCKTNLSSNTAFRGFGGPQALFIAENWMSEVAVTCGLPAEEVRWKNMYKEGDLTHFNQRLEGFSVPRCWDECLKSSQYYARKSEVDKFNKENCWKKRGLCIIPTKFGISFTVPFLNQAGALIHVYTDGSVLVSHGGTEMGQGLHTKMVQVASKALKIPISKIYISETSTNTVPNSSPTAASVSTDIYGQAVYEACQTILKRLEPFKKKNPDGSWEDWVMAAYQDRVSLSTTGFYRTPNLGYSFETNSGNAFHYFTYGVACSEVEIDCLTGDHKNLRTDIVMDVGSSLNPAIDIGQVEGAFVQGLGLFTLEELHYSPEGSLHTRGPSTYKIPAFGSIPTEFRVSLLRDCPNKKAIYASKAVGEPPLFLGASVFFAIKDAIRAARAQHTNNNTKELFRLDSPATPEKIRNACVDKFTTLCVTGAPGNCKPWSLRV
Description: A mixture of 0.05M phosphate buffer (pH=8, 2 ml), 5.0×10^-4 M xanthine solution (0.5 ml), and an aqueous solution of a test compound (0.3 ml) was charged in a cell for the spectrophotometer. An aqueous solution of xanthine oxidase (200 times dilution, Boelinger Manheim, milk xanthine oxidase) (0.2 ml) was added to the mixture. The absorbance at 293 nm was measured before, and 10 minutes after, the addition of xanthine. The increase in the two measurements is attributable to the amount of synthesized uric acid. Control experiment was carried out using water instead of the test compound solution.

In the case of `O=C(O)COc1cc(OCc2ccccc2)c2c(c1)OC1(CCCCC1)CC2=O` [Example 23], the “ΔUuaV (increment of urinary uric acid)” value (uric acid clearance; dose 10 mg/kg intraperitoneal) is reported as 0.051 mg/kg-min.
`O=C(O)COc1cc(O)c2c(c1)SC1(CCCCC1)CC2=O` [Example 49, 2-{(5-Hydroxy-3,4-dihydro-4-oxospiro[2H-1-benzothiine-2,1'-cyclohexan]-7-yl)oxy}acetic acid] was tested, and the “ΔUuaV (increment of urinary uric acid)” value (uric acid clearance; dose 10 mg/kg intraperitoneal) was 0.082 mg/kg-min.
In the case of `C=CCOc1cc(OCC(=O)O)cc2c1C(=O)CC1(CCCCC1)O2` [Example 25], the “ΔUuaV (increment of urinary uric acid)” value (uric acid clearance; dose 10 mg/kg intraperitoneal) is reported as 0.043 mg/kg-min.
`O=C(O)COc1cc(Cl)c2c(c1Cl)OC1(CCCCC1)CC2=O` [Example 11] was tested, and the “ΔUuaV (increment of urinary uric acid)” value (uric acid clearance; dose 10 mg/kg intraperitoneal) was 0.022 mg/kg-min.
With `COc1cc(OCC(=O)O)cc2c1C(=O)CC1(CCCCC1)O2` [Example 21, {(5-Methoxy-3,4-dihydro-4-oxospiro[2H-1-benzopyran-2,1'-cyclohexan]-7-yl)oxy}acetic acid] the “ΔUuaV (increment of urinary uric acid)” value (uric acid clearance; dose 10 mg/kg intraperitoneal) was 0.046 mg/kg-min and the IC50 [1] was 65 µM.
With `COc1cc(OCC(=O)O)cc2c1C(=O)C(C)C1(CCCCC1)O2` (stereo not shown) [Example 30] the “ΔUuaV (increment of urinary uric acid)” value (uric acid clearance; dose 10 mg/kg intraperitoneal) was 0.036 mg/kg-min.
With `CC(C)Oc1cc(OCC(=O)O)cc2c1C(=O)CC1(CCCCC1)O2` [Example 24] the “ΔUuaV (increment of urinary uric acid)” value (uric acid clearance; dose 10 mg/kg intraperitoneal) was 0.024 mg/kg-min.
In the case of `CCOc1cc(OCC(=O)O)cc2c1C(=O)CC1(CCCCC1)O2` [Example 22], the “ΔUuaV (increment of urinary uric acid)” value (uric acid clearance; dose 10 mg/kg intraperitoneal) is reported as 0.029 mg/kg-min.
For `COc1cc(OCC(=O)O)cc2c1C(=O)CC(C)(C)O2` [Example 33], the “ΔUuaV (increment of urinary uric acid)” value (uric acid clearance; dose 50 mg/kg intraperitoneal) was 0.047 mg/kg-min.
For `COc1cc(OCC(=O)OCn2ncc3c(=O)[nH]cnc32)cc2c1C(=O)CC1(CCCCC1)O2` [Example 61], the “ΔUuaV (increment of urinary uric acid)” value (uric acid clearance; dose 25 mg/kg intraperitoneal) was -0.006 mg/kg-min.
In the case of `COc1c(OCC(=O)O)ccc2c1OC1(CCCCC1)CC2=O` [Example 34], the “ΔUuaV (increment of urinary uric acid)” value (uric acid clearance; dose 10 mg/kg intraperitoneal) is reported as 0.040 mg/kg-min.
For `COc1cc(OCC(=O)O)cc2c1C1(CC3(CCCCC3)O2)SCCS1` [Example 54, {(5-Methoxy-3,4-dihydrodispiro[2H-1-benzopyran-2,1'-cyclohexan-4,2"-[1,3]dithiolan]-7-yl)oxy}acetic acid], the “ΔUuaV (increment of urinary uric acid)” value (uric acid clearance; dose 10 mg/kg intraperitoneal) was 0.039 mg/kg-min.
